Laboratory results reported in patent publication EP0143109A1, “Pranoprofen gelled ointment” (priority 1983, dated 1985).

Columns and labels:
[1] = rat, in vivo
[2] = Percutaneous absorption and excretion (Experiment 8); conditions: after removing the unabsorbed ointment 6 hours after application

excretion route [1]: excreted mainly into urine and feces
half-life of blood level [2]: about 5 hours
Structure (SMILES): CC(C(=O)O)c1ccc2c(c1)Cc1cccnc1O2 (centres unmarked) [pranoprofen, Pranoprofen]
